Data published in PubChem BioAssay (NCI).
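In this assay, cells in 96-well plates receive the compound at five concentrations for 48 hours. Endpoints are linearly interpolated between the surrounding concentrations. TGI marks complete inhibition of growth.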

Key:
Experiment in all cases: DTP human tumour cell line panel, 48 h
K-562 leukemia = test system: K-562 leukemia
NCI-H460 lung = test system: NCI-H460 lung
T-47D breast = test system: T-47D breast
DU-145 prostate = test system: DU-145 prostate
SNB-75 CNS = test system: SNB-75 CNS
SF-295 CNS = test system: SF-295 CNS
OVCAR-3 ovarian = test system: OVCAR-3 ovarian
A549 NSCLC = test system: A549 NSCLC
HOP-62 NSCLC = test system: HOP-62 NSCLC
KM12 colon = test system: KM12 colon
SK-MEL-5 melanoma = test system: SK-MEL-5 melanoma
LOX IMVI melanoma = test system: LOX IMVI melanoma
MOLT-4 leukemia = test system: MOLT-4 leukemia
HCT-116 colon = test system: HCT-116 colon
EKVX NSCLC = test system: EKVX NSCLC
SW-620 colon = test system: SW-620 colon
IGROV1 ovarian = test system: IGROV1 ovarian
NCI/ADR-RES ovarian = test system: NCI/ADR-RES ovarian
OVCAR-8 ovarian = test system: OVCAR-8 ovarian
SR leukemia = test system: SR leukemia

`COC(=O)N1CC2C3C4CC(C(c5ccccc5)=C4c4ccccc4)C3C21` (stereo not given) was tested, and the TGI (K-562 leukemia) was over 100 µM, the TGI (NCI-H460 lung) was 32.2 µM and the TGI (T-47D breast) was 32.9 µM. It also gave a TGI (DU-145 prostate) of 34.5 µM, a TGI (SNB-75 CNS) of 76.4 µM and a TGI (SF-295 CNS) of 32.4 µM. For the same compound, the TGI (OVCAR-3 ovarian) was 36.7 µM, the TGI (A549 NSCLC) was 73.1 µM and the TGI (HOP-62 NSCLC) was 42.5 µM. For the same compound, the TGI (KM12 colon) was 34.2 µM, the TGI (SK-MEL-5 melanoma) was 25.9 µM and the TGI (LOX IMVI melanoma) was 25.6 µM. The TGI (MOLT-4 leukemia) was 38.6 µM, the TGI (HCT-116 colon) was 25.7 µM and the TGI (EKVX NSCLC) was 36.7 µM. The TGI (SW-620 colon) was 40.4 µM, the TGI (IGROV1 ovarian) was 45.6 µM and the TGI (NCI/ADR-RES ovarian) was 35.4 µM. For the same compound, the TGI (OVCAR-8 ovarian) was 35.7 µM and the TGI (SR leukemia) was 51.1 µM.
